How the values were obtained:
[1] = Cation titration followed by absorbance or fluorescence excitation spectra: Mg²⁺ binding; conditions: 0.1 M tetramethylammonium chloride, 1-5 mM tris(hydroxymethyl)aminomethane, high pH, read-out: Dissociation constants (Kd) in mM for Mg²⁺
Experimental: (§1) • Footnote a: For molecular structures, see Fig. 1. • Footnote b: Except where otherwise noted, these dissociation constants were measured with the chelator dissolved in 0.1 M tetramethylammonium chloride, at a pH held high enough with 1-5 mM tris(hydroxymethyl)aminomethane for protonation to be insignificant. The absorbance spectrum, or the fluorescence excitation spectrum for those compounds (2GG, 2NN, 2OO, 2PP, 3NN) with acronyms was measured as a function of the concentration of cation added as a solid or concentrated aqueous solution of the halide salt. No correction has been made for the changing ionic strength of the solution, which started from 0.1 M and increased, but the absorbances and fluorescence amplitudes were applied for dilution of the dye and any slight quenching due to high concentrations of Cl⁻. • Footnote c: These protonation constants were determined in 0.1 M tetramethylammonium chloride, 10 mM tris(hydroxymethyl)aminomethane, titrated with 5 M H₃PO₄ to successively lower pH values measured with a Radiometer PHM84 meter. […] The first number is the wavelength in nanometers, followed in parentheses by 10⁻³ x the corresponding extinction coefficient, M⁻¹cm⁻¹. […] Emission maxima are not corrected for the spectral sensitivity of the emission detection. Quantum efficiencies were measured (13) by comparing the integral of the corrected emission spectrum with the corresponding integral for a solution of quinine bisulfate in 1 N H₂SO₄ of matched absorbance at the excitation wavelength.
(§2) Affinities for other cations were usually measured by titrating aqueous solutions of the indicator with metal chlorides added either as solid or from concentrated stock solutions, taking care to minimize dilution and correct for it. A convenient way to mass-produce premeasured micromole to millimole aliquots of solid NaCl or KCl was to pipet saline solutions into polypropylene micro test tubes and evaporate the water in an oven. The standard ionic background was again 100 mM tetramethylammonium chloride, usually with a few mM of tris(hydroxymethyl)-aminomethane base to hold the pH high enough (pH 8-9) to insure that protonation was negligible. This convenient titration procedure had the slight disadvantage that the ionic strength was not constant, especially when large quantities of a salt had to be added due to weak affinities. […] When constant ionic strength was desired, the chelator was made up at identical concentrations in matched solutions of NaCl, KCl, or tetramethylammonium chloride, then these stocks were mixed in the desired proportions.

[2] = Cation titration followed by absorbance or fluorescence excitation spectra: Li⁺ binding; conditions: for Kd: 0.1 M tetramethylammonium chloride, 1-5 mM tris(hydroxymethyl)aminomethane, high pH, read-out: Dissociation constants (Kd) in mM for Li⁺
Experimental: as §1
as §2, with “proportions. All measurements were made at room temperature (22°, ±2° C).” for “proportions.”

[3] = Cation titration followed by absorbance or fluorescence excitation spectra: Ca²⁺ binding; conditions: 0.1 M tetramethylammonium chloride, 1-5 mM tris(hydroxymethyl)aminomethane, high pH, read-out: Dissociation constants (Kd) in mM for Ca²⁺
Experimental: as §1
as §2, with “proportions. All measurements were made at room temperature (22°, ±2° C).” for “proportions.”

[4] = UV absorbance spectra without and with saturating cation; type: physicochemical
Experimental: as §1
UV absorbance spectra were recorded initially on a Cary 210 and later on a Perkin-Elmer Lambda Array 3840 spectrophotometer. Fluorescence excitation and emission spectra and quantum efficiencies were measured on a Spex Fluorolog 111 as described previously (13).

[5] = Cation titration followed by absorbance or fluorescence excitation spectra: K⁺ binding; conditions: inert background cations such as tetramethylammonium or Cs⁺, high pH
Experimental: as §1
Affinities for other cations were usually measured by titrating aqueous solutions of the indicator with metal chlorides added either as solid or from concentrated stock solutions, taking care to minimize dilution and correct for it. […] This convenient titration procedure had the slight disadvantage that the ionic strength was not constant, especially when large quantities of a salt had to be added due to weak affinities. […]

[6] = physchem; conditions: 0.1 m tetramethylammonium chloride
Experimental: (§3) • Footnote a: For molecular structures, see Fig. 1. • Footnote b: Except where otherwise noted, these dissociation constants were measured with the chelator dissolved in 0.1 M tetramethylammonium chloride, at a pH held high enough with 1-5 mM tris(hydroxymethyl)aminomethane for protonation to be insignificant. […] No correction has been made for the changing ionic strength of the solution, which started from 0.1 M and increased, but the absorbances and fluorescence amplitudes were applied for dilution of the dye and any slight quenching due to high concentrations of Cl⁻. • Footnote c: These protonation constants were determined in 0.1 M tetramethylammonium chloride, 10 mM tris(hydroxymethyl)aminomethane, titrated with 5 M H₃PO₄ to successively lower pH values measured with a Radiometer PHM84 meter.
(§4) Proton dissociation constants of the chelators were measured by spectrophotometry or spectrofluorometry of buffered solutions, containing either 100 mM tetramethylammonium chloride as inert supporting electrolyte, or 121.5 mM K⁺, 13.5 mM Na⁺, and 1 mM Mg²⁺ to simulate the cation environment of vertebrate cytoplasm (14). Traces of UV-absorbing impurities in the tetramethylammonium chloride (Alfa Inorganics) were removed by filtration through acid-­washed activated charcoal. The concentration of the tetramethylammonium chloride was then measured by chloride titration, and the absence of significant Na⁺ contamination was verified with a sodium-selective glass electrode (Microelectrodes Inc.). When the chelators contained two protonatable nitrogens, the curve of absorbance or fluorescence versus pH was analyzed by computerized least-squares fitting to the equations for two arbitrary proton equilibria (15), with the added assumption that the two protonations each caused the same change in extinction coefficient or fluorescence.

[7] = Proton dissociation constants in 0.1 M tetramethylammonium chloride; conditions: 10 mM Tris titrated with 5 M H₃PO₄
Experimental: as §3, §4

[8] = Effective Kd for Na⁺ against a K⁺ background; type: binding
Experimental: For comparison, Lehn's cryptand [2.2.1] (see ref. 5) is shown in the upper left hand corner. Below cryptand [2.2.1] are three generic types of crown ethers that have been prepared for use in the making some of the compounds of the present invention. To the right of the vertical dividing line are examples of some of the aromatic and heterocyclic substituents that can be attached to the nitrogens of the crown ethers. […] The lowest curve ([Na⁺] = 0) was obtained with 5 µM SBFI in 130 mM KCl, 10 mM MOPS, KOH to pH 7.05, approximately 135 mM total K⁺. The highest curve ([Na⁺] = 135 mM) was analogously recorded from 5 µM SBFI in 130 mM NaCl, 10 mM MOPS, NaOH to pH 7.05. […]
• Footnote a: For molecular structures, see Fig. 1. • Footnote b: Except where otherwise noted, these dissociation constants were measured with the chelator dissolved in 0.1 M tetramethylammonium chloride, at a pH held high enough with 1-5 mM tris(hydroxymethyl)aminomethane for protonation to be insignificant. The absorbance spectrum, or the fluorescence excitation spectrum for those compounds (2GG, 2NN, 2OO, 2PP, 3NN) with acronyms was measured as a function of the concentration of cation added as a solid or concentrated aqueous solution of the halide salt. […]

- Kd ([1]; listed as 2PP (SBFI)): 60 mM
- Kd ([1]; listed as SBFI): ~60 mM
- Li⁺ affinity [2]: 15 M⁻¹
- Kd ([2]; listed as 2PP (SBFI)): 68 mM
- Kd ([2]; listed as SBFI): 67 mM
- Kd ([3]; listed as 2PP (SBFI)): 38 mM
- Kd ([3]; listed as SBFI): ~38 mM
- Absorbance maxima -Na⁺ (wavelength) ([4]; 100 mM tetramethylammonium chloride plus 1-5 mM Tris, no Na⁺): 346 nanometers
- Absorbance maxima +Na⁺ (wavelength) ([4]; enough NaCl added (0.2-1 M) to saturate the Na⁺ binding): 334 nanometers
- Absorbance maxima -Na⁺ (extinction coefficient) ([4]; number is 10⁻³ x the extinction coefficient, lower limits for most compounds, no Na⁺): 42000 M⁻¹ cm⁻¹
- Absorbance maxima +Na⁺ (extinction coefficient) ([4]; number is 10⁻³ x the extinction coefficient, lower limits, saturating NaCl (0.2-1 M)): 47000 M⁻¹ cm⁻¹
- extinction coefficients ([4]; without to with Na⁺, in M-1·cm-1 (unit assumed)): 42,000-47,000
- K⁺ affinity [5]: 7 M⁻¹
- pKa [6]: 6.1
- pKa ([7]; first value printed (highest pKa, 1st proton), listed as 2PP (SBFI)): 5.89
- pKa ([7]; second value (second protonation)): 5.19
- Kd ([8]; Na⁺-K⁺ mixtures, sum held constant at 135 mM, 1 mM Mg²⁺ present, pH 7.05, read-out: apparent dissociation constant for Na⁺): 17 to 19 mM
- Kd ([8]; [Na⁺]+[K⁺] = 280 mM (cytoplasm of marine organisms), read-out: effective Kd for SBFI-Na⁺): 28 mM
Structure (SMILES): COc1cc2cc(-c3ccc(C(=O)O)cc3C(=O)O)oc2cc1N1CCOCCOCCN(c2cc3oc(-c4ccc(C(=O)O)cc4C(=O)O)cc3cc2OC)CCOCC1 [Compound 2PP, N,N-bis-(2-(2,4-dicarboxyphenyl)-5-methoxybenzofuran-6-yl)-diaza[15]-crown-5]

From patent publication EP0369733A2, “Fluorescent indicator dyes for alkali metal cations, their preparation and use” (THE REGENTS OF THE UNIVERSITY OF CALIFORNIA, priority 1988, dated 1990)
